Several values for one entry are separate records, joined by “and”; a condition that tells them apart may be missing. Identical values can stand only once. After the bases stand the sugars from the 5' end (letter, count) and the backbone: PS all phosphorothioate, else s phosphorothioate and o phosphodiester by linkage. Methylation of C is not given here. e = 2'-O-(2-methoxyethyl) (MOE); k = constrained ethyl (cEt); d = 2'-deoxy (DNA)

This data set has as its target MALAT1. Particulars: ASO, A431, 0.005 µM.
Take AGACTAAAGGCTTCAG (sugars k3 d10 k3, PS): the target mRNA inhibition was found to be 12%. As for AGAGCTACTTAGCTGT (sugars k3 d10 k3, PS), the target mRNA inhibition was determined as 16%. In the case of AGAGGGAGTTGAGGCA (sugars k3 d10 k3, PS), the target mRNA inhibition was 40%. The figure for AGATAATGTTCTCATC (sugars k3 d10 k3, PS) is 11%; for AGATATTGTGCTGTTA (sugars k3 d10 k3, PS) it is 17%; for AGATCGCCTTCAAATT (sugars k3 d10 k3, PS) it is 41%. The figure for AGATGGACATTGCCTC (sugars k3 d10 k3, PS) is 48%; for AGATTAGTAGTCAAAG (sugars k3 d10 k3, PS) it is -12%; for AGATTGCCCCAACACT (sugars k3 d10 k3, PS) it is 38%. The figure for AGCAACTCTTCTGATA (sugars k3 d10 k3, PS) is 30%. AGCACCGCTTGAGATT (sugars k3 d10 k3, PS): the target mRNA inhibition was 42% and 20%.

As to AGCAGTAGGGCTTCTC (sugars k3 d10 k3, PS), the target mRNA inhibition was determined as 3%.

Consider AGCATACCTTAACATC (sugars k3 d10 k3, PS), for which the target mRNA inhibition came to 19%. AGCCAAGCACTCATAT (sugars k3 d10 k3, PS): the target mRNA inhibition came to 17%.

Consider AGCCACTCAAATGCCT (sugars k3 d10 k3, PS), for which the target mRNA inhibition was 28%. Then AGCCAGTCAGGGACAC (sugars k3 d10 k3, PS), with -3%.

As for AGCCTTCGGTGCCTTT (sugars k3 d10 k3, PS), the target mRNA inhibition is 5%. Consider AGCGGGATCAGAACAG (sugars k3 d10 k3, PS), for which the target mRNA inhibition turned out to be 43%. The figure for AGCTACTGGCTGCATC (sugars k3 d10 k3, PS) is 20%. The figure for AGCTAGGGAAAAGTGG (sugars k3 d10 k3, PS) is -10%. The figure for AGCTTCAACTGGGAAT (sugars k3 d10 k3, PS) is 13%; for AGCTTCAATCACAAAT (sugars k3 d10 k3, PS) it is 23%; for AGGAAGGCTCCATGGT (sugars k3 d10 k3, PS) it is 11%. For the sequence AGGATGTATATAGTTC (sugars k3 d10 k3, PS), the target mRNA inhibition was determined as 2%. Then AGGCAAACGAAACATT (sugars k3 d10 k3, PS), with 35%; and AGGCAAATTAATGGCC (sugars k3 d10 k3, PS), with 8%.

AGGCTATTACCTGAAA (sugars k3 d10 k3, PS): the target mRNA inhibition is -5%. AGGGACGGTTGAGAAG (sugars k3 d10 k3, PS): the target mRNA inhibition was found to be 14%.

For the sequence AGGGCTTTACTTTCCA (sugars k3 d10 k3, PS), the target mRNA inhibition was -5%. AGGTATAGTTTACCAC (sugars k3 d10 k3, PS): the target mRNA inhibition was -7%. Turning to AGTAACTACCAGCCAT (sugars k3 d10 k3, PS), the target mRNA inhibition was 45%.

As to AGTACGAAACTCCCCC (sugars k3 d10 k3, PS), the target mRNA inhibition is 28%. Then AGTCAGGGACACACCC (sugars k3 d10 k3, PS), with -16%; and AGTCCCTGAAGGTGTT (sugars k3 d10 k3, PS), with 28%; and AGTCTCGGGCTGCAGG (sugars k3 d10 k3, PS), with 3%. With AGTGTGATAGTTCAGG (sugars k3 d10 k3, PS), the target mRNA inhibition is 7%. Then AGTGTTCGCAGACAAA (sugars k3 d10 k3, PS), with 34%. The figure for ATAACGAAGAGATACC (sugars k3 d10 k3, PS) is 6%; for ATACGACTGCTTAAAA (sugars k3 d10 k3, PS) it is 20%; for ATACTCTTCCAAGGAT (sugars k3 d10 k3, PS) it is 35%. As to ATACTTCATTACCCCA (sugars k3 d10 k3, PS), the target mRNA inhibition was determined as 50%. With ATACTTGTCTTAGCTT (sugars k3 d10 k3, PS), the target mRNA inhibition was 60% and 75% and 50%. Then ATAGACGGAGAACAAC (sugars k3 d10 k3, PS), with 21%; and ATAGCAGCGGGATCAG (sugars k3 d10 k3, PS), with 57%.

With ATAGTGTAAAACATTG (sugars k3 d10 k3, PS), the target mRNA inhibition is 0%. The figure for ATATTTTGCCCCCACC (sugars k3 d10 k3, PS) is 2%. Then ATCACCGGAATTCGAT (sugars k3 d10 k3, PS), with 17%; and ATCACTTTAGAGGCTT (sugars k3 d10 k3, PS), with 53%; and ATCATTGGGAGTTACT (sugars k3 d10 k3, PS), with 54%.

ATCCTGAAATCCCCTA (sugars k3 d10 k3, PS): the target mRNA inhibition came to 8%. As for ATCGCCTTCAAATTAT (sugars k3 d10 k3, PS), the target mRNA inhibition is 60% and 76%. Take ATCTAGGCCATCATAC (sugars k3 d10 k3, PS): the target mRNA inhibition was 32%. Then ATCTCCCACCTGTCTA (sugars k3 d10 k3, PS), with 45%. The figure for ATCTGCGGTTTCCTCA (sugars k3 d10 k3, PS) is 58%. As to ATGCCCACAAGGATCC (sugars k3 d10 k3, PS), the target mRNA inhibition is 33%.

As for ATGCTTATTCCCCAAT (sugars k3 d10 k3, PS), the target mRNA inhibition was found to be 52%. In the case of ATGGAGGTATGACATA (sugars k3 d10 k3, PS), the target mRNA inhibition was found to be 20%.

Take “ATGGAGGTATGACATATAAT (sugars e5 d10 e5, PS)”: the target mRNA inhibition was 22% and 25%. The figure for ATGTACTCAGCTTCAA (sugars k3 d10 k3, PS) is 44%; for ATGTTAAGAGAAGCCC (sugars k3 d10 k3, PS) it is -17%; for ATTAAAGAGTGTTCGC (sugars k3 d10 k3, PS) it is 69% and 44%. Then ATTAATGCACTGGTAC (sugars k3 d10 k3, PS), with 16%; and ATTACCCCAACTAAAC (sugars k3 d10 k3, PS), with 9%.

Take ATTACTTCCGTTACGA (sugars k3 d10 k3, PS): the target mRNA inhibition came to 43%. Turning to ATTATATGCTCATCAC (sugars k3 d10 k3, PS), the target mRNA inhibition amounted to 51%. Turning to ATTATCCTGATATTGG (sugars k3 d10 k3, PS), the target mRNA inhibition is 46%.

On to ATTATGGATCATGCCC (sugars k3 d10 k3, PS), for which the target mRNA inhibition worked out at 17%. Take ATTGGGAGTTACTTGC (sugars k3 d10 k3, PS): the target mRNA inhibition is 63% and 85%.

With ATTTAACTTCCCCCAG (sugars k3 d10 k3, PS), the target mRNA inhibition stood at 18%. As to ATTTATAGACCCCTGA (sugars k3 d10 k3, PS), the target mRNA inhibition was -8%. Then CAAAACCCCCGGAACT (sugars k3 d10 k3, PS), with 0%; and CAAAACGAATTCAGGG (sugars k3 d10 k3, PS), with 26%. Then CAACACTCAGCCTTTA (sugars k3 d10 k3, PS), with -1%; and CAACCGTAACAGGCCA (sugars k3 d10 k3, PS), with 23%; and CAACCTCCGTCATGTT (sugars k3 d10 k3, PS), with 35%.

With CAACTCTTCTGATAAC (sugars k3 d10 k3, PS), the target mRNA inhibition turned out to be 16%. Turning to CAAGAACTAGCACCTG (sugars k3 d10 k3, PS), the target mRNA inhibition amounted to 7%. The figure for CAAGCTGAACTATCAC (sugars k3 d10 k3, PS) is 27%; for CAAGGATCCAAGCTAC (sugars k3 d10 k3, PS) it is 19%. Then CAAGGATGTATATAGT (sugars k3 d10 k3, PS), with 0%; and CAAGTAAGCCCCACCC (sugars k3 d10 k3, PS), with 26%; and CAATAGTACTATAGCA (sugars k3 d10 k3, PS), with 7%. Then CAATATTTGCCCCTCC (sugars k3 d10 k3, PS), with 30%; and CAATGCATTCTAATAG (sugars k3 d10 k3, PS), with 18%. For the sequence CAATGGACATCTCTTC (sugars k3 d10 k3, PS), the target mRNA inhibition was 49%.

As for CAATTACCTAAACCCA (sugars k3 d10 k3, PS), the target mRNA inhibition worked out at 20%.

As to CACAAATACGACTGCT (sugars k3 d10 k3, PS), the target mRNA inhibition was 24%. Then CACAAGGCAAATCGCC (sugars k3 d10 k3, PS), with 20%; and CACAATTCTTAATCAG (sugars k3 d10 k3, PS), with 41%.

On to CACAGCGGTACACTCC (sugars k3 d10 k3, PS), for which the target mRNA inhibition turned out to be 40%. The figure for CACCAAATCGCACTGG (sugars k3 d10 k3, PS) is -7%; for CACCGCTTGAGATTTG (sugars k3 d10 k3, PS) it is 47% and 30% and 26%; for CACGCCAACACAGTTT (sugars k3 d10 k3, PS) it is 36%. Then CACGGAAATTTTTCTA (sugars k3 d10 k3, PS), with 8%; and CACTACTCCAAGCATT (sugars k3 d10 k3, PS), with 23%; and CACTCATATGCAATTC (sugars k3 d10 k3, PS), with 37%. On to CACTCTAAGATTGTAA (sugars k3 d10 k3, PS), for which the target mRNA inhibition worked out at 33%. As to CACTGGATAAGTATTA (sugars k3 d10 k3, PS), the target mRNA inhibition stood at 40%. The figure for CACTGTCAATTTATAG (sugars k3 d10 k3, PS) is 19%.

The values above are taken from the OligoGym collection.
